The values that follow are results of earlier work, collected in patent US20230210738A1, “Low-Skin Irritating Deodorant Composition And A Method For Preparing Thereof” (Sislan (Zhuhai) Pharmaceutical Technology Co. Ltd., priority 2021, published 2023).

One data set relates to bacteria. Particulars: hexamine prepared in basic condition.
For data set [1] the following is noted: hexamine as weak base.

On to `C1N2CN3CN1CN(C2)C3` [hexamine, hexamethylenetetramine], for which, in the data set on bacteria, the antibacterial effect result is given as “capable of demonstrating an antibacterial effect”. For the same molecule, the “neutralization of odoriferous, volatile organic acids” value in data set [1] is listed as “able to neutralize a number of odoriferous, volatile organic acids”.
